The term logD denotes the decadic logarithm of the distribution of all forms, ionised or not, between an organic phase and buffer at a given pH. A high value points to higher lipophilicity.

A short description of this series: method code SF-AS, from DOI: 10.1002/chin.198834177. The settings on record: pH 5.6.
In turn, `CCOC(=O)CCC(C)n1nc2ccccc2n1` (stereo not given) yielded a logD of 3.05.

The compound `CCCC(C(N)=O)n1nnc2ccccc21` (stereo not given) came in with a logD of 1.38.

Compound `CCOC(=O)C(CC)n1nc2ccccc2n1` (stereo not given) registered a logD of 2.88.

For `CCCC(C(=O)OCC)n1nnc2ccccc21` (stereo not given), the logD amounted to 2.82.

`CCCCC(C(N)=O)n1nnc2ccccc21` (stereo not given) had a pH-dependent lipophilicity (logD) of 1.88.

In turn, `CCOC(=O)C(C)n1nc2ccccc2n1` (stereo not given) showed a logD of 2.38.

For the compound `CCOC(=O)C(C)(C)n1nc2ccccc2n1`, the logD stood at 2.98.

Take `CC(C(N)=O)n1nc2ccccc2n1` (stereo not given): the log distribution coefficient (logD) was found to be 0.86.

On to `CC(CC(N)=O)n1nc2ccccc2n1` (stereo not given), for which the logD came to 1.

In turn, `CCCCC(C(=O)OCC)n1nnc2ccccc21` (stereo not given) yielded a pH-dependent lipophilicity (logD) of 3.32.

In turn, `CCOCC(=O)CCC(C)n1nnc2ccccc21` (stereo not given) yielded a pH-dependent lipophilicity (logD) of 2.64.

With `CC(CCC(N)=O)n1nnc2ccccc21` (stereo not given), the logD was found to be 1.15.

Compound `CC(C(N)=O)n1nnc2ccccc21` (stereo not given) registered a pH-dependent lipophilicity (logD) of 0.35.

Consider `CC(C)(C(N)=O)n1nc2ccccc2n1`, for which the pH-dependent lipophilicity (logD) was 1.16.

Turning to `CCOC(=O)C(CC)n1nnc2ccccc21` (stereo not given), the logD amounted to 2.34.

`CCOC(=O)CC(C)n1nnc2ccccc21` (stereo not given): the logD came to 2.27.

`CCC(C(N)=O)n1nc2ccccc2n1` (stereo not given) showed a logD of 1.25.

Turning to `CCC(C(N)=O)n1nnc2ccccc21` (stereo not given), the logD came out at 0.88.

Turning to `CCCCC(C(N)=O)n1nc2ccccc2n1` (stereo not given), the log distribution coefficient (logD) was determined as 2.28.

`CCCCC(C(=O)OCC)n1nc2ccccc2n1` (stereo not given) returned a logD of 3.88.

For the compound `CCCC(C(N)=O)n1nc2ccccc2n1` (stereo not given), the logD is 1.75.

`CCOC(=O)CC(C)n1nc2ccccc2n1` (stereo not given): the log distribution coefficient (logD) stood at 2.7.

`CC(CC(N)=O)n1nnc2ccccc21` (stereo not given) displayed a logD of 0.75.

In turn, `CCOC(=O)C(C)n1nnc2ccccc21` (stereo not given) returned a logD of 1.87.

As to `c1ccc2nn(C3CCCCC3)nc2c1`, the logD was 3.63.

`CC(C)(C(N)=O)n1nnc2ccccc21` showed a logD of 0.76.

For the compound `c1ccc2c(c1)nnn2C1CCCCC1`, the logD is 3.11.

In turn, `CC(CCC(N)=O)n1nc2ccccc2n1` (stereo not given) came in with a log distribution coefficient (logD) of 1.35.

In the case of `CCOC(=O)C(C)(C)n1nnc2ccccc21`, the log distribution coefficient (logD) is 2.6.

Consider `CCCC(C(=O)OCC)n1nc2ccccc2n1` (stereo not given), for which the logD is 3.38.

Values taken from the SangsterLogP compilation.
